Values quoted from earlier work in patent US8030335B2, “Use of liver X receptor agonists” (Laboratoires Fournier S.A., priority 2005, dated 2011).

Key:
db/db mice = settings: cited from earlier work
[1] = test system: pancreatic islets or insulin-secreting MIN6 cells; settings: culture with compound, cited from earlier work

Structure (SMILES): O=S(=O)(c1ccccc1)N(CC(F)(F)F)c1ccc(C(O)(C(F)(F)F)C(F)(F)F)cc1 [T0901317]
- plasma glucose level (db/db mice; db/db mice (not in normal mice)): lower plasma glucose level
- expression of PEPCK (db/db mice; limits hepatic glucose output): inhibits
- islet insulin content [1]: increase
- glucose-dependent insulin secretion ([1]; effect only after >72 h of islet culture): increase
